From US12285459B2, “Saposin-A derived peptides and uses thereof” (CHILDREN'S MEDICAL CENTER CORPORATION, priority 2011, dated 2025) come the findings set out here.

Assay [1] deals with PC3M-LN4 prostate cancer cells. Nature of the assay: Orthotopic PC3M-LN4 prostate tumor model. Conditions: 30 mg/kg/day i.p. from day 26 for 16 days; PBS control. The assay is classed as in vivo, SCID mice. On the procedure: C57Bl6 SCID mice were injected with 1×10^6 PC3M-LN4 prostate cancer cells in the prostate gland as described previously (Kang et al). After 26 days the animals were treated with either PBS or peptides corresponding to residues 36-40 or 36-39 of saposin A at a dose of 30 mg/kg/day via intraperitoneal (i.p.) injection. After 16 days of treatment all animals were sacrificed, prostate tumors were weighed and harvested, along with the lungs of animals. Tissues were either fixed in NBF, or lysed and analyzed for Tsp-1 and p53 expression by western blot analysis.
The peptides were then tested for their ability to inhibit tumor growth and metastasis in three models, the PC3M-LN4 prostate cancer model, the B16-B6 melanoma model and the Lewis Lung Carcinoma (LLC) model. 1×10^6 PC3M-LN4 cells were first injected into the prostate gland of SCID mice. After 26 days these mice were treated with either PBS alone or the 4- or 5-amino acid peptide at a dose of 30 mg/kg/day via i.p. injection. The mice were treated for 16 days after which the mice were examined the size of the tumors and the expression of Tsp-1 and p53 in the primary tumors and lungs of the animals. The tumors in animals treated with the 4- and 5-amino acid peptides were, on average, 45% and 40% the size of control animals, respectively (FIG. 6).

Assay [2] relates to Lewis Lung Carcinoma cells. Nature of the assay: Lewis Lung Carcinoma tail vein lung metastasis model, bioluminescence. The assay is classed as in vivo, C57Bl6 mice. The procedure:
C57Bl6 mice were injected with 1×10^6 Lewis Lung Carcinoma cells via tail vein. After 10 days the animals were treated with either PBS or a peptide corresponding to residues 36-40 of saposin A at a dose of 30 mg/kg/day via i.p. injection. After 16 days of treatment all animals were sacrificed, lungs were weighed and harvested. Tissues were either fixed in NBF, or lysed and analyzed for Tsp-1 and p53 expression by western blot analysis.
1×10^6 luciferase-expressing LLC cells were then injected via tail vein into C57Bl6 mice. After 5 days the mice were treated with the 5-amino acid peptide at a dose of 30 mg/kg/day via i.p. injection. After 29 days the animals were sacrificed, at which point the average luciferase activity in the peptide treated mice, as measured by a Xeongoen IVIS system, was 2% that of the luciferase activity in mice treated with a scrambled peptide (FIG. 8).
For experimental metastasis, 7-week old C57BL/6 mice were injected via tail vein with 1×10^5 luciferase-labeled LLC cells. Metastatic growth was monitored over time using bioluminescence imaging performed with mice in a supine position 5 min after D-luciferin injection with a Xenogen IVIS system coupled to Living Image acquisition and analysis software (Xenogen). For BLI plots, photon flux was calculated for each mouse by using the same circular region of interest encompassing the thorax of the mouse.

Assay [3] has as its system MDA-MB-231-LM2 breast cancer cells. Description: Orthotopic MDA-MB-231-LM2 breast cancer model, lung metastasis after primary tumor resection. Type of assay: in vivo, SCID mice. The procedure: (§1) For orthotopic breast cancer cell injections, 5×10^6 viable MDA-MB-231 or its metastatic variant MDA-MB-LM2 cells, were injected into CB-17 SCID mice fat pads in a volume of 0.1 ml. Tumor growth and pulmonary metastases (following resection of primary tumor) were monitored by live animal bioluminescence imaging (Xenogen) once per week. For orthotopic prostate cancer cell injections, 2×10^6 viable LN4 or LN4-psap cells were injected into the prostate gland of mice. For in vivo determination of the metastatic burden, mice were anaesthetized and injected intraperitoneally with 75 mg/kg of D-luciferin (100 uL of 30 mg/mL in PBS). Metastatic growth was monitored over time using bioluminescence imaging performed with mice in a supine position 5 min after D-luciferin injection with a Xenogen IVIS system coupled to Living Image acquisition and analysis software (Xenogen). For BLI plots, photon flux was calculated for each mouse by using the same circular region of interest encompassing the thorax of the mouse.
The ability of the DWLPK (SEQ ID NO: 4) peptide to inhibit metastasis was tested in an orthotopic, clinically relevant, model of breast cancer metastatic to the lung. […] Lung metastases were assessed 3 weeks after the primary tumor removal (week 6 after primary tumor injection).

Assay [4] relates to primary ovarian cancer cells. Nature of the assay: Intraperitoneal metastatic ovarian cancer model, bioluminescence. Type of assay: in vivo, CB-17 SCID mice. Conditions: 40 mg/kg QD from day 17; after 30 days. On the procedure: as §1, with “metastatic ovarian” for “orthotopic breast”, “primary ovarian cancer cells” for “MDA-MB-231 or its metastatic variant MDA-MB-LM2 cells,”, “intraperitoneally” for “fat pads”, “was” for “and pulmonary metastases (following resection of primary tumor) were”, “week.” for “week. For orthotopic prostate cancer cell injections, 2×10^6 viable LN4 or LN4-psap cells were injected into the prostate gland of mice.”, “abdomen” for “thorax”
To determine whether DWLPK (SEQ ID NO: 4) could inhibit or regress existing ovarian metastases 5×10^6 primary ovarian cancer cells were injected intraperitoneally into SCID mice. After 17 days treatment was initiated with DWLPK (SEQ ID NO: 4) at a dose of 40 mg/kg QD, cisplatin at a dose of 2 mg/kg QOD, a combination of DWLPK (SEQ ID NO: 4) and cisplatin at the same doses, or PBS (control). It was observed that DWLPK (SEQ ID NO: 4) treatment completely regressed the metastases in 11/12 after 30 days and the regressed the metastases in the remaining mice by 99% (FIG. 20).

Turning to “DWLPK [5-amino acid peptide corresponding to residues 36-40 of saposin A]”, the “prostate tumor size relative to control animals” value in assay [1] came out at 40%. Moreover, the “average luciferase activity relative to mice treated with a scrambled peptide” value in assay [2] (30 mg/kg/day i.p. from day 5, after 29 days, IVIS) came out at 2%. For the same substance, the “lung metastases by bioluminescence imaging” value in assay [2] (LLC-luc cells via tail vein, compared to scrambled peptide) is “dramatically reduced lung metastases”. In assay [3] (compared to scrambled peptide), the “Tsp-1 in the Gr1+ myeloid compartment of lungs” value is “persistent Tsp-1 upregulation”. In assay [3] (daily treatment after resection, 3 weeks after primary tumor removal, versus scramble peptide), the “reduction of the metastatic burden in the lungs” value is 50%. Besides, in assay [4], the “mice with completely regressed metastases” value was 11/12 and the “regression of the metastases in the remaining mice” value was 99%.
